Source: US8304377B2, “Sulfonate surfactants and methods of preparation and use” (Dow Global Technologies LLC, priority 2009, dated 2012)

What was measured:
[1] = Solubility evaluation, visual assessment in caustic, calcium chloride and cold water; type: physicochemical
Text: The final concentrations are: 0.1 wt % for surfactant, 10 wt % for NaOH.
The final concentrations are: 0.1 wt % for surfactant, 1 M for CaCl2.
, C12, and C14 sulfonate compositions of the invention, as produced in Examples 5, 7, and 8, in 10% sodium hydroxide, 1M calcium chloride, […] 2A1 are shown in Table 2 below, and indicate that these new materials have desirable characteristics.

Desmondesmus subspicatus = assay: Fresh water algal growth inhibition test (OECD 201); type: cell-based; conditions: growth rate, 0-3; read-out: Fresh Water algal growth inhibition test with Desmondesmus subspicatus ErC50/0-3
Text: The study procedures and test methods are based on the recommendations of the following guidelines: Organization for Economic Cooperation and Development (OECD): OECD Guidelines for the Testing of Chemicals, “Freshwater Alga and Cyanobacteria, Growth Inhibition Test”, Procedure 201, adopted 23 Mar. 2006; European Economic Community (EEC): Commission directive 92/69/EEC of 31 Jul. 1992, Methods for the determination of ecotoxicity, C.3., “Algal Inhibition Test”. Data from the aquatic toxicity tests of the isolated and purified C12 mono and disulfonates from Example 11 is shown in Table 3.

Daphna magna = assay: 48-hour acute toxicity to Daphnia; type: in vivo
Text: The study procedures and test methods are based on the recommendations of the following guidelines:
Data from the aquatic toxicity tests of the isolated and purified C12 mono and disulfonates from Example 11 is shown in Table 3.

Compound: linear alkylbenzene sulfonate [LAS]
- Visual assessment, 0.1 wt % surfactant in 1M CaCl2 ([1]; 0.1 wt % surfactant, 1 M CaCl2): cloudy
- Visual assessment, 0.1 wt % surfactant in 10% NaOH ([1]; 0.1 wt % surfactant, 10 wt % NaOH): cloudy
- Visual assessment, 1 wt % surfactant at 7° C. ([1]; 1 wt % surfactant, 7° C.): cloudy

Compound: CCCCCCCCCCCCOC(CS(=O)(=O)[O-])CS(=O)(=O)[O-].[Na+].[Na+] [sodium 2-(dodecanyloxy)propane-1,3-disulfonate]
- EC50 (Desmondesmus subspicatus): > 100 µg/mL
- EC50 (Daphna magna): > 100 µg/mL
